Laboratory results taken from paper PMC6753678, “Fueling Open Innovation for Malaria Transmission-Blocking Drugs: Hundreds of Molecules Targeting Early Parasite Mosquito Stages” (Frontiers in Microbiology, 2019).
Where two headings read alike, the source gives them in different places.

Columns and labels:
[1] = system: 3D7-strain P. falciparum asexual parasites; assay: P. falciparum asexual growth inhibition assay (Pf GIA); assay type: cell-based, Plasmodium falciparum; details: dose response confirmation; read-out: Pf asexual growth inhibition assays IC50
Outline: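 Parasites at 0.25% parasitemia, 2% hematocrit in Albumax-supplemented RPMI were exposed to compounds in dose response for 72 h at 37°C under 5% CO2/5% O2. Viability was read as LDH activity (NBT/diaphorase, A650 after freeze-thaw). Percent inhibition was calculated against chloroquine and DMSO controls, mean of three biological replicates.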

HepG2 cells = assay: HepG2 cytotoxicity assay; details: for Pb ODA (this manuscript) HepG2 cytoxicity: HepG2 cytotoxicity listed with the Pb ODA data set (this manuscript); for IC50: read-out: HepG2 cytotoxicity assay IC50, dose response confirmation
Outline: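 Cells at 2,500 per well in MEM with 10% fetal bovine serum and 1% NEAA were exposed to test compounds for 48 h at 37°C, 5% CO2. Viability was read by fluorescence, with percent inhibition calculated against 50 μM doxorubicin (positive) and DMSO (negative) controls.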

[2] = system: P. berghei ookinete development; details: for % inhibition, Replicate A / % inhibition, Replicate B: primary screen at 1 μM
[3] = read-out: Pb ODA (this manuscript) IC50, P. berghei ookinete development assay, this manuscript
[4] = read-out: Pb Ookinete development assay IC50, dose response confirmation
[5] = unified HepG2 value across the three screens
[6] = read-out: Pb ODA IC50, this manuscript
[7] = HepG2 values of the three screens unified

| Structure (SMILES) | IC50 [1] | Pb ODA (this manuscript) HepG2 cytoxicity (HepG2 cells) | IC50 (HepG2 cells) | Is compound selective in assay? Pb ODA active? [2] | % inhibition, Replicate A [2] | % inhibition, Replicate B [2] | IC50 [2, 3] | IC50 [2, 4] | Unified cytotox (HepG2 cells; [5]) | Is compound selective in assay? Pb ODA active? ([2]; 1: YES, 0: NO) | IC50 [2, 6] | Unified cytotox (HepG2 cells; [7]) | % inhibition, Replicate A ([2]; 1 µM) | % inhibition, Replicate B ([2]; 1 µM) |
| --- | --- | --- | --- | --- | --- | --- | --- | --- | --- | --- | --- | --- | --- | --- |
| Br.CC1(C)NC(N)=NC(=N)N1OCCCOc1cccc(Cl)c1 [TCMDC-131762] | < 0.2 nM | 0.001 µM | 1 nM | 0 (key: 1: YES; 0: NO) | 47.79% | 53.67% | 2100 nM | 2100 nM |  |  |  |  |  |  |
| CC[C@H]1CN2CCc3cc(OC)c(OC)cc3[C@@H]2C[C@@H]1C[C@H]1NCCc2c1cc(OC)c(O)c2Cl [TCMDC-131802] | 156 nM | 4.52 µM | 4520 nM | 1 (key: 1: YES; 0: NO) | 61.67% | 93.54% | 270 nM | 268 nM |  |  |  |  |  |  |
| Br.CC[C@H]1CN2CCc3cc(OC)c(OC)cc3[C@@H]2C[C@@H]1C[C@H]1NCCc2c1cc(OC)c(O)c2I [TCMDC-131829] | 98 nM | 5.43 µM | 5430 nM | 1 (key: 1: YES; 0: NO) | 45.92% | 90.22% | 410 nM | 412 nM |  |  |  |  |  |  |
| CC[C@@]1(O)C(=O)OCc2c1cc1n(c2=O)Cc2c-1nc1cc3c(cc1c2CN1CCN(C)CC1)OCCO3.Cl [TCMDC-131875] | 204 nM |  | 1260 nM |  | 61.11% | 69.44% |  | 2370 nM | 1.26 µM | 0 (0: NO) | 2370 nM |  |  |  |
| CC[C@@]1(O)C(=O)OCc2c1cc1n(c2=O)Cc2c-1nc1cc3c(cc1c2CN1CCOCC1)OCO3.O=C(O)C(F)(F)F [TCMDC-131876] | 7 nM |  | 470 nM |  | 79.37% | 70.89% |  | 1250 nM | 0.47 µM | 0 (0: NO) | 1250 nM |  |  |  |
| Nc1nc(N)c2c(ccc3c2cnn3Cc2cccnc2)n1 [TCMDC-131932] | 1.3 nM | 0.055 µM | 55 nM | 0 (key: 1: YES; 0: NO) | 68.89% | 58.00% | 2390 nM | 2390 nM |  |  |  |  |  |  |
| CN(C)S(=O)(=O)n1ncc2c3c(N)nc(N)nc3ccc21.Cl [TCMDC-131933] | 23 nM | 0.001 µM | 1 nM | 0 (key: 1: YES; 0: NO) | 39.05% | 54.28% | 540 nM | 539 nM |  |  |  |  |  |  |
| COc1ccc(Cn2ncc3c4c(N)nc(N)nc4ccc32)cc1OC [TCMDC-131934] | 58 nM | 0.00214 µM | 2.14 nM | 0 (key: 1: YES; 0: NO) | 44.86% | 51.03% | 1530 nM | 1530 nM |  |  |  |  |  |  |
| CCCCCCCc1cc(=O)c2ccccc2[nH]1 [TCMDC-132026] | 458 nM | 20.65 µM | 20600 nM | 1 (key: 1: YES; 0: NO) | 86.88% | 74.93% | 1140 nM | 1140 nM |  |  |  |  |  |  |
| Nc1c2ccccc2nc2ccc(Cl)cc12 [TCMDC-132029] | 324 nM |  | 13500 nM |  | 75.70% | 81.80% |  | 1460 nM | 13.49 µM | 0 (0: NO) | 1460 nM |  |  |  |
| COc1ccc2c(=O)c3ccc(OC)cc3[nH]c2c1 [TCMDC-132054] | 2420 nM | 100.00 µM | 100000 nM | 1 (key: 1: YES; 0: NO) | 107.15% | 103.78% | 580 nM | 575 nM |  |  |  |  |  |  |
| COc1ccc(C23Oc4cc(OC)cc(OC)c4C2(O)C2(CC3c3ccccc3)SCCCS2)cc1 (stereo not drawn) [TCMDC-132098] | 712 nM |  | 100000 nM |  | 104.91% | 114.13% |  | 401 nM | 100.00 µM | 1 (1: YES) | 400 nM |  |  |  |
| COc1ccc(-c2ccc([N+](=O)[O-])cc2C(=O)NCC(C)Oc2ccc(C(F)(F)F)cc2)cc1 (stereo not drawn) [TCMDC-132304] | 520 nM |  | 100000 nM |  | 29.22% | 50.52% |  | 4010 nM | 100.00 µM | 1 (1: YES) | 4010 nM |  |  |  |
| Cc1[nH]c(C)c(-c2ccc(-c3ccc(OCC(F)(F)F)cc3)nc2)c(=O)c1Cl [TCMDC-132306] | 655 nM |  | 100000 nM |  | 58.32% | 97.73% |  | 1240 nM |  | 1 (1: YES) | 1240 nM | 100.00 µM |  |  |
| Cc1[nH]c(C)c(-c2ccc(-c3ccc(C(F)F)cc3)nc2)c(=O)c1Cl [TCMDC-132329] | 1440 nM |  | 100000 nM |  | 72.54% | 35.56% |  | 7800 nM |  | 1 (1: YES) | 7800 nM | 100.00 µM |  |  |
| Cc1noc(C)c1-c1cccc(CNCc2ccc(-c3cccc(-c4nc5cc(F)ccc5[nH]4)c3)cc2)c1.O=C(O)C(F)(F)F [TCMDC-133060] | 1300 nM |  | 15500 nM |  | 12.93% | 53.61% |  | 13700 nM | 15.49 µM | 0 (0: NO) | 13700 nM |  |  |  |
| Cc1noc(C)c1-c1cccc(CNCc2ccc(-c3ccc(-c4nc5cccc(C)c5[nH]4)cc3)cc2)c1.O=C(O)C(F)(F)F [TCMDC-133061] | 120 nM |  | 7940 nM |  | 50.05% | 37.24% |  | 2660 nM | 7.94 µM | 0 (0: NO) | 2660 nM |  |  |  |
| Cc1cc(=O)c(-c2ccc(Oc3cccc(C(F)(F)F)c3)cc2)c(C)[nH]1 [TCMDC-133308] | 385 nM | 14.45 µM | 14400 nM | 1 (key: 1: YES; 0: NO) |  |  | 730 nM | 733 nM |  |  |  |  | 59.11% | 56.29% |
| COc1ccc(-c2cnc(N)c(-c3ccc(C(N)=O)cc3)c2)cc1OC [TCMDC-133349] | 666 nM |  | 100000 nM |  | 68.77% | 82.48% |  | 426 nM | 100.00 µM | 1 (1: YES) | 430 nM |  |  |  |
| O=C(Nc1ccc(OC2CCN(Cc3ccc(F)cc3)CC2)c(Cl)c1)c1cccs1.O=C(O)C(F)(F)F [TCMDC-133746] | 242 nM | 38.90 µM | 38900 nM | 1 (key: 1: YES; 0: NO) | 51.32% | 44.22% | 1160 nM | 1160 nM |  |  |  |  |  |  |
| O=C(Nc1ccc(OC2CCN(Cc3ccc(F)cc3)C2)c(Cl)c1)c1cccs1.O=C(O)C(F)(F)F (stereo not drawn) [TCMDC-133757] | 187 nM |  | 25100 nM |  | 48.09% | 57.60% |  | 1910 nM | 25.12 µM | 1 (1: YES) | 1910 nM |  |  |  |
| O=C(Nc1ccc(OC2CCN(Cc3ccc(F)cc3)C2)c(Cl)c1)c1ccc(F)cc1.O=C(O)C(F)(F)F (stereo not drawn) [TCMDC-133763] | 878 nM |  | 24600 nM |  | 33.23% | 66.02% |  | 2950 nM | 24.55 µM | 0 (0: NO) | 2950 nM |  |  |  |
| CNC(=O)c1ccccc1Nc1nc(Nc2ccc(CCN3CCN(C)CC3)cc2)ncc1Cl.Cl [TCMDC-133800] | 402 nM | 2.26 µM | 2260 nM | 0 (key: 1: YES; 0: NO) | 66.37% | 76.75% | 2310 nM | 2320 nM |  |  |  |  |  |  |
| Cc1cccc2nc(-c3ccc(-c4ccc(CN5CC(C)OC(C)C5)cc4)cc3)[nH]c12.O=C(O)C(F)(F)F (stereo not drawn) [TCMDC-133823] | 168 nM | 15.14 µM | 15100 nM | 1 (key: 1: YES; 0: NO) | 122.68% | 88.91% | 430 nM | 434 nM |  |  |  |  |  |  |
